Experimental data taken from article PMC4703063, “Dual functionality of O-GlcNAc transferase is required for Drosophila development” (Open Biology, 2015).
Changes are numbered by the printed parent chain. Names may count otherwise.

Legend:
Δ1–312 hOGT [1] = target: T1, Δ1–312 hOGT (Homo sapiens, UniProt O15294); test: radiometric transfer assay on RBL2 peptide, Ki from IC50 by Cheng-Prusoff; type: biochemical
T1 construct: gene OGT; N-terminally truncated, residues 1-312 removed (printed once as Δ1-313 beside the Ki); part of TPRs plus catalytic domain; recombinant
T1 sequence (O15294 323-1041): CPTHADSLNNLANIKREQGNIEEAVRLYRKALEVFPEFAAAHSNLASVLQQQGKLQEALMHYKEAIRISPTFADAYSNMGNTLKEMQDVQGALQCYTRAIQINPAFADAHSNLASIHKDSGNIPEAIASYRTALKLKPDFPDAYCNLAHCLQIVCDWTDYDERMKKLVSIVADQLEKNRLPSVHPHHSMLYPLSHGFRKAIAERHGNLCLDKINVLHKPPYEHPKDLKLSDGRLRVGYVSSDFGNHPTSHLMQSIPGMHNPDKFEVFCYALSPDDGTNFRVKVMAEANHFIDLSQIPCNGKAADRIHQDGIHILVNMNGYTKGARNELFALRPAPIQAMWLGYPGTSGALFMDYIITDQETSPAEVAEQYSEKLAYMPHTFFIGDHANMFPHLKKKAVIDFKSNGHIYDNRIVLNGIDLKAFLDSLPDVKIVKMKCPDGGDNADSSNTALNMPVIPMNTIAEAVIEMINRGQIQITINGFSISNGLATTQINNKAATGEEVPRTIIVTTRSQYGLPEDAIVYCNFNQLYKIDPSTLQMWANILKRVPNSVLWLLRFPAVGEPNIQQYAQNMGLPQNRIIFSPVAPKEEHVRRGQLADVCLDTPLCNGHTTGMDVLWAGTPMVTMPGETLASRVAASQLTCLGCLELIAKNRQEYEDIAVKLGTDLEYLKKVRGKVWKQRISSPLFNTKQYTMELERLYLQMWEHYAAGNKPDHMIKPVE

Δ1–352 DmOGT [2] = target: T2, Δ1–352 DmOGT (Drosophila melanogaster, UniProt Q7KJA9, K872M); test: X-ray crystallography (co-crystal, […] Å); type: binding; conditions: 3 mM UDP-5S-GlcNAc; pH 7.5 protein buffer; 21 °C
T2 construct: gene sxc; N-terminally truncated construct starting at residue 353 in TPR 10 (part of TPRs plus catalytic domain); expressed in E. coli (ArcticExpress), purified as hOGT Δ1-312; wild type in kinetics, K872M in crystal
T2 sequence (Q7KJA9 353-1059 K872M): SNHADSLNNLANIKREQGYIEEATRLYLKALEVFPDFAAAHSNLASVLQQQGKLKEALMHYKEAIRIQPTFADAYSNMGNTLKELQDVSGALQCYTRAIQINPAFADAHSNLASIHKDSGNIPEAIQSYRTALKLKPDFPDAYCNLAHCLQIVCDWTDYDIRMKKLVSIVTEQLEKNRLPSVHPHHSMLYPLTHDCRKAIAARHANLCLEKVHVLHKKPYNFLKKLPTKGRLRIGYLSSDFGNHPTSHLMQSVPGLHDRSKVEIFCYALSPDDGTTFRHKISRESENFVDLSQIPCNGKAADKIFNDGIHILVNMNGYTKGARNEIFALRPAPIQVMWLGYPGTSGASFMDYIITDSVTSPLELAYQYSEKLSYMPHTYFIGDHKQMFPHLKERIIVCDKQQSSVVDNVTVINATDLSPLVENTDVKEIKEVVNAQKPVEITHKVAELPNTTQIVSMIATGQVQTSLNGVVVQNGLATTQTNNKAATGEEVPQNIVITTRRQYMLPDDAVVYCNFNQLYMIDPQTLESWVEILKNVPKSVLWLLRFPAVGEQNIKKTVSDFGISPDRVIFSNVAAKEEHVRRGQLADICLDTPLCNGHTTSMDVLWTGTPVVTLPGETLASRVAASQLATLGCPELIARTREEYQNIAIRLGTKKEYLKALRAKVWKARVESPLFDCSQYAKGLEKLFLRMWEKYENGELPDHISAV

Δ1–352 DmOGT [3] = target: T3, Δ1–352 DmOGT (Drosophila melanogaster, UniProt Q7KJA9); test: radiometric transfer assay on RBL2 peptide, three-parameter dose-response fit; type: biochemical
T3 construct: gene sxc; N-terminally truncated construct starting at residue 353 in TPR 10 (part of TPRs plus catalytic domain); expressed in E. coli (ArcticExpress), purified as hOGT Δ1-312; wild type in kinetics, K872M in crystal
T3 sequence (Q7KJA9 353-1059): T2 sequence (Q7KJA9 353-1059 K872M) with M520K

Δ1–312 hOGT [4] = target: T1, Δ1–312 hOGT; test: as above; type: biochemical
Δ1–352 DmOGT [5] = target: T3, Δ1–352 DmOGT; test: radiometric transfer assay on RBL2 peptide, Ki from IC50 by Cheng-Prusoff; type: biochemical
[6] = substrate: CC(=O)N[C@H]1[C@@H](OP(=O)(O)OP(=O)(O)OC[C@H]2O[C@@H](n3ccc(=O)[nH]c3=O)[C@H](O)[C@@H]2O)O[C@H](CO)[C@@H](O)[C@@H]1O; test: radiometric transfer assay on RBL2 peptide, Michaelis-Menten fit; type: biochemical, Drosophila melanogaster; conditions: 0.25 mM RBL2 peptide …, UDP-[3H]-GlcNAc tracer, pH 7.5
[7] = substrate: CC(=O)N[C@H]1[C@@H](OP(=O)(O)OP(=O)(O)OC[C@H]2O[C@@H](n3ccc(=O)[nH]c3=O)[C@H](O)[C@@H]2O)O[C@H](CO)[C@@H](O)[C@@H]1O; test: as above; type: biochemical, Homo sapiens; conditions: 0.25 mM RBL2 peptide …, UDP-[3H]-GlcNAc tracer, pH 7.5

## CC(=O)N[C@@H]1[C@@H](O)[C@H](O)[C@@H](CO)S[C@@H]1OP(=O)(O)OP(=O)(O)OC[C@H]1O[C@@H](n2ccc(=O)[nH]c2=O)[C@H](O)[C@@H]1O [UDP-5S-GlcNAc]
Δ1–312 hOGT [1]
  Ki: 13.6 µM
Δ1–352 DmOGT [2]
  X-ray crystallography (co-crystal, 2.7 Å): crystallized in complex with the inhibitor/substrate analogue UDP-5S-GlcNAc
Δ1–352 DmOGT [3]
  IC50: 68.3 µM
Δ1–312 hOGT [4]
  IC50: 24.6 µM
Δ1–352 DmOGT [5]
  Ki: 36.2 µM

B1: Δ1–352 DmOGT (Drosophila melanogaster) (protein)
chain: T2 sequence (Q7KJA9 353-1059 K872M) with M520K
notes: N-terminally truncated construct starting at residue 353 in TPR 10 (part of TPRs plus catalytic domain); expressed in E. coli (ArcticExpress), purified as hOGT Δ1-312; wild type in kinetics, K872M in crystal
[6]
  Km: 17.8 ± 0.7 µM

B2: Δ1–312 hOGT (Homo sapiens) (protein)
chain: T1 sequence (O15294 323-1041)
notes: N-terminally truncated, residues 1-312 removed (printed once as Δ1-313 beside the Ki); part of TPRs plus catalytic domain; recombinant
[7]
  Km: 6.6 ± 0.3 µM
